Data reported in the supplement of paper PMC10307832.

Legend:
Test in all cases: relative viability (nuclei count vs DMSO), 5 days (fraction); higher = more cells survive
PAC-1 + Olaparib = compound: C=CCc1cccc(/C=N/NC(=O)CN2CCN(Cc3ccccc3)CC2)c1O [PAC-1] + O=C(c1cc(Cc2n[nH]c(=O)c3ccccc23)ccc1F)N1CCN(C(=O)C2CC2)CC1 [Olaparib] (partner 8 µM)
How it was run: (§1)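 Relative viability is defined as nuclei in treated wells over nuclei in vehicle wells. Duplicate plates were run and medians reported. Lung cancer cell lines in 1536-well plates were dosed by pin tool one day after seeding, with one drug or with a fixed anchor-drug dose plus five library-drug doses (not always all listed) in √10 steps, and nuclei were counted after 5 days.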

PAC-1 + Bortezomib = compound: C=CCc1cccc(/C=N/NC(=O)CN2CCN(Cc3ccccc3)CC2)c1O [PAC-1] + CC(C)C[C@H](NC(=O)[C@H](Cc1ccccc1)NC(=O)c1cnccn1)B(O)O [Bortezomib] (partner 0.002 µM)
How it was run: as §1

PAC-1 + Pictilisib = compound: C=CCc1cccc(/C=N/NC(=O)CN2CCN(Cc3ccccc3)CC2)c1O [PAC-1] + CS(=O)(=O)N1CCN(Cc2cc3nc(-c4cccc5[nH]ncc45)nc(N4CCOCC4)c3s2)CC1 [Pictilisib] (partner 1 µM)
How it was run: as §1

Ibrutinib + Tozasertib = compound: C=CC(=O)N1CCC[C@@H](n2nc(-c3ccc(Oc4ccccc4)cc3)c3c(N)ncnc32)C1 [Ibrutinib] + Cc1cc(Nc2cc(N3CCN(C)CC3)nc(Sc3ccc(NC(=O)C4CC4)cc3)n2)n[nH]1 [Tozasertib] (partner 0.1 µM)
How it was run: as §1

| Cell Line | relative viability (PAC-1 + Olaparib; first compound 0.02 µM) | relative viability (PAC-1 + Olaparib; first compound 0.06325 µM) | relative viability (PAC-1 + Olaparib; first compound 0.2 µM) | relative viability (PAC-1 + Olaparib; first compound 2 µM) | relative viability (PAC-1 + Bortezomib; first compound 0.02 µM) | relative viability (PAC-1 + Bortezomib; first compound 0.06325 µM) | relative viability (PAC-1 + Bortezomib; first compound 0.2 µM) | relative viability (PAC-1 + Bortezomib; first compound 2 µM) | relative viability (PAC-1 + Pictilisib; first compound 0.02 µM) | relative viability (PAC-1 + Pictilisib; first compound 0.06325 µM) | relative viability (PAC-1 + Pictilisib; first compound 0.2 µM) | relative viability (PAC-1 + Pictilisib; first compound 2 µM) | relative viability (Ibrutinib + Tozasertib; first compound 0.005 µM) | relative viability (Ibrutinib + Tozasertib; first compound 0.01581 µM) | relative viability (Ibrutinib + Tozasertib; first compound 0.05 µM) | relative viability (Ibrutinib + Tozasertib; first compound 0.1581 µM) | relative viability (Ibrutinib + Tozasertib; first compound 0.5 µM) |
| --- | --- | --- | --- | --- | --- | --- | --- | --- | --- | --- | --- | --- | --- | --- | --- | --- | --- |
| SK-LU-1 | 0.405 | 0.465 | 0.455 | 0.414 | 0.8 | 1.3 | 1.21 | 1.22 | 0.557 | 0.607 | 0.457 | 0.512 | 0.363 | 0.252 | 0.399 | 0.347 | 0.33 |
| PC-3 [JPC-3] | 1.04 | 1.15 | 1.1 | 1.09 | 0.83 | 0.789 | 0.774 | 0.877 | 0.736 | 0.77 | 0.732 | 0.787 | 0.872 | 0.772 | 0.873 | 0.99 | 0.681 |
| ChaGo-K-1 | 0.419 | 0.412 | 0.416 | 0.404 | 0.941 | 1.1 | 1.16 | 0.88 | 0.817 | 0.818 | 0.925 | 0.627 | 0.228 | 0.218 | 0.212 | 0.232 | 0.22 |
| NCI-H3122 | 0.635 | 0.634 | 0.624 | 0.566 | 1.03 | 1.05 | 1 | 0.977 | 0.611 | 0.564 | 0.645 | 0.566 | 0.507 | 0.395 | 0.343 | 0.415 | 0.46 |
| NCI-H1703 | 0.376 | 0.401 | 0.388 | 0.341 | 0.29 | 0.268 | 0.4 | 0.353 | 0.245 | 0.267 | 0.249 | 0.205 |  |  |  |  |  |
